The text below walks through data of patent publication US8008074B2, “Compositions and methods for improving bone mass through modulation of receptors of PTH and fragments thereof” (The UAB Research Foundation, priority 2006, dated 2011).

For test [1], the system named is LRP5/Axin binding. The test can be described thus: Axin-LRP5 binding immunoprecipitation. Type of test: cell-based. The following applies: significantly induced at 30 minutes; data not shown. The source says: If the observation is true, then the phosphorylated PPPSP motif will serve as an Axin docking site.
GSK3β is involved in PTH-stimulated LRP6 phosphorylation at its PPPSP motifs. However, the phosphorylation of LRP5 by PTH was very strong and seems GSK3β-unrelated. Since LRP6N, the extracellular domain with transmembrane region, functions as dominant-negative, we examined whether it inhibits PTH-induced Axin binding with LRP5/6.

The test system of test [2] is MPK1, RANKL and OPG mRNA. The test can be described thus: Real-Time PCR of PTH target genes in bone tissue of injected rats. Type of test: in vivo, rat. To be noted: rats injected with PTH (PTH (1-34)). The source says: Immunohistochemical staining of representative sections with antibody against β-catenin at 10× objective and 40× objective counterstained with hematoxylin from either primary spongliosa subjacent to the epiphyseal growth plates or Spongiosa subjacent to diaphyseal hematopoietic bone marrow of different time points after PTH single injection in rats. […] Each value is the mean±SEM of determinations in three independent slides of each animal and three animals of each group. Panels B and C show graphs of the expression of MPK1 mRNA and the ratio of RANKL/OPG as quantified by real-time PCR in cavaria tissue from the same animals. […] Panel D is a graph showing the numbers of β-catenin-positive osteoblasts as a percent of total osteoblasts per field that were determined. […]
It has been reported that intermittent PTH treatment targeted proliferating cells in the primary spongiosa of young rat distal femur metaphysis, resulting in an increased number of osteoblasts (Oniya, 1995, Bone). […] Quantitation of MPK1, RANKL, OPG, and GAPDH with specific primers was performed using a DNA Engine Opticon continuous fluorescence detection system (MJ Research, Logan, Utah) with SYBR Green I as the method of detection. […] Briefly, quantitative PCR was performed in a total reaction volume of 20 μl per […]. […]
(In general: Quantitative PCR measures a nucleic acid by following its amplification.)

Test [3] concerns the target T1, TGFβRII (Homo sapiens, UniProt P37173+Q03431).
T1 construct: expressed in transfected cells; host or cells: HEK293-PTH1R (HEK293 stably expressing HA-PTH1R)
Put plainly: TGFβRII internalization in HEK293-PTH1R cells. The format is cell-based. To be noted: stimulated with PTH for 30 minutes; 90% before stimulation. Here is the method: TGFβRII tagged with Flag epitope was expressed in HEK293 cells that were expressing PTH1R or not, and the transfected cells were treated with PTH or control.
In particular, TGFβ1 treatment increases the number of cell membrane PTH1R. Therefore, the potential functional relationship of PTH with TGFβRII was examined. TGFβRII tagged with Flag epitope was transiently expressed in embryonic kidney 293 (HEK293) cells or HEK293 cells stably expressing PTH1R with HA (HEK293-PTH1R). In the absence of PTH, TGFβRII was present predominantly at the cell surface, with a few puncta in the cytosol (data not shown). […] To visualize the effect of PTH to the TβRII, a red fluorescent PTH (1-34) was synthesized in which the TMR fluorophore was attached to the side chain of the lysine residue at position 13 in PTH (1-34) (PTH^TMR).
To quantitate these observations, the cells were fixed at various time points and classified as three types: (1) TGFβRII is dominantly present at the cell surface, (2) TGFβRII locates to both the cell surface and vesicles in the cytosol, and (3) TGFβRII mainly localizes to the cytosol as vesicles. Before stimulation with PTH, TGFβRII was present at the cell surface in 90% of the cells. […] From 10 to 30 minutes after stimulation with PTH (1-34), cell-surface TβRII levels were reduced, indicative of receptor clearance from the cell surface membrane (FIG. 10B). […]

Test [4] addresses PTH1R/LRP6 complex (Homo sapiens, UniProt Q03431). Type of test: cell-based.
The test system of test [5] is LRP6/Axin binding. The test can be described thus: Axin-LRP6 binding immunoprecipitation assay. The following applies: without added GSK3β; data not shown. Type of test: cell-based.
Test [6] relates to TGFβ/Smad signaling. The test can be described thus: TGFβ/Smad signaling after PTH pretreatment. Type of test: cell-based. Here is the method:
Panel B is a graph showing the decrease in activity from the SBE-luciferase reporter in the presence of PTH and PTH1R.
It has been reported that TGFβ-induced endocytosis of TGFβ/TβRII is mediated by Sara endosome. The response of TβRII to PTH was analyzed to determine whether it is the same as to TGFβ. […] The observation was confirmed by TGFβ-induced interaction between Smad2 and Smad4.

T1 sequence (P37173 23-567): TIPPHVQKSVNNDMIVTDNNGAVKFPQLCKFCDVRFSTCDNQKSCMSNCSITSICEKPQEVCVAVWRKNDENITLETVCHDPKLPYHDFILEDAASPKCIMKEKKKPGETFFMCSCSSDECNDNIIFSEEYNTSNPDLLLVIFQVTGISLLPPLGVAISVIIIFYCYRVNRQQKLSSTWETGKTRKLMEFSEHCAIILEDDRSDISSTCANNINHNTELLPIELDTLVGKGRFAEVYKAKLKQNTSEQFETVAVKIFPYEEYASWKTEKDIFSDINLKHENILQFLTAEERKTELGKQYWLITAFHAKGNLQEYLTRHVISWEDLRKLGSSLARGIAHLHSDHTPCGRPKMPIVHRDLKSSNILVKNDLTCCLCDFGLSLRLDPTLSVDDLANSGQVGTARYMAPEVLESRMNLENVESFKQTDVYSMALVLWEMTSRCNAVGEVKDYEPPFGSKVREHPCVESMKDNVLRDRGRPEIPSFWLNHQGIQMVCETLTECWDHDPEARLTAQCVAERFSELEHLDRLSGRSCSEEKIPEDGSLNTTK
T1 sequence (Q03431 27-593): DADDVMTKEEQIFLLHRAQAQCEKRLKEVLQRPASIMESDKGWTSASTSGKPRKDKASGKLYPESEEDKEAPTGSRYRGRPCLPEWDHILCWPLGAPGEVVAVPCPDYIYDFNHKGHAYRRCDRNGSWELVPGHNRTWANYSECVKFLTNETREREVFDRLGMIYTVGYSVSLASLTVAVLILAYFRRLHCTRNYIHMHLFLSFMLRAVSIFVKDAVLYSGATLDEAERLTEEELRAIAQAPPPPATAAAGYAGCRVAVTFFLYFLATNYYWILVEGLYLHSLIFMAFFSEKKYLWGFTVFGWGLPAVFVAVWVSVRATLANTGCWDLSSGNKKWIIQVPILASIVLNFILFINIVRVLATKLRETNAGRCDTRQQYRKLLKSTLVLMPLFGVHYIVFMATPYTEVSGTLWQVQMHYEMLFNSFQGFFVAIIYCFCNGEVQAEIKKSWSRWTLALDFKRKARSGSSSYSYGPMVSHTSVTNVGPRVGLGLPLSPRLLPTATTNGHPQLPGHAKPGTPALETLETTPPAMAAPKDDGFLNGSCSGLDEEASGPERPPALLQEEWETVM

As to “PTH: Parathyroid hormone ligand, form not stated at the place; figure legends give PTH (1-84) or PTH (1-34)”, the “binding of Axin to LRP5” value in test [1] is on record as “induced binding of Axin to LRP5”. Also, in test [2], the “MPK1 mRNA expression” value is on record as “stimulated MPK1 mRNA expression” and the “ratio of RANKL/OPG” value is “increased”. Moreover, the “cells exhibiting cell-surface localization of TGFβRII” value in test [3] is “less than 10%”. The “enhancement of interaction of PTH1R with LRP6N or LRP6” value in test [4] was “did not enhance the interaction of PTH1R with LRP6N or LRP6”. In addition, the “LRP6-associated PTH ligand (anti-VSVG immunoprecipitates, anti-PTH blot)” value in test [4] (HEK 293 cells, 5×10^−7 M PTH (1-84) for 1 hour) is “immunoprecipitated only when both LRP6 and PTH1R were cotransfected”. The “Axin/LRP6 binding, PTH alone” value in test [5] is “undetectable”. In test [6] (C2C12 cells pretreated with PTH), the “phosphorylation of Smad2 by TGFβ after PTH pretreatment” value is “largely inhibited”. In addition, the “inhibition by PTH1R of TGFβ activation of SBE luciferase reporter” value in test [6] (cells expressing PTH1R) is given as “enhanced the inhibition”. In addition, the “TGFβ-induced interaction between Smad2 and Smad4” value in test [6] (pretreatment with PTH) is on record as “inhibits the interaction”.
